Legend:
[1] = dog, in vivo
From the text: Eight healthy 8-month-old male beagles were obtained from the Chulalongkorn University Laboratory Animal Centre (CULAC), Chulalongkorn University. […] Food was provided twice a day, and water was available ad libitum. […] The animal experiments were approved by the Institutional Animal Care and Use Committee of the CULAC, Chulalongkorn University, Bangkok, Thailand (Protocol number 2073002, Approval date: February 21, 2020). All animal procedures were complied with the ethical principles and guidelines for the use of animals (National Research Council of Thailand, 2015). All animal experiments followed the ARRIVE reporting guidelines for documenting animal experiments.
(§1) One or two capsules containing the test substance were orally administered at 8:00 AM to the dogs following the experimental plan. […] The blood samples were centrifuged at 5000g for 10 min at 4 °C to collect plasma and then stored at − 80 °C until analysis. […] The volume of urine and weight of faeces were recorded and all samples were stored at − 80 °C until analysis. All dogs were reused with a washed out period of two weeks, to allow complete excretion of bioactive triterpenoids.
All biological samples (plasma, urine, and faeces) were subjected to protein precipitation to extract the major triterpenoids from the samples. Two hundred microliters of methanol with two internal standards (glycyrrhizin and glycyrrhetinic acid) was added to 50 µL of the biological sample and mixed for 10 min. Then, the sample was centrifuged at 12,000g for 10 min at 4 °C, and 10 µL of supernatant was injected into the LC–MS/MS system. Faeces samples were homogenised by adding methanol, then the mixture was centrifuged at 1500g for 10 min at 4 °C to collect the supernatant. In the case of the concentration of the biological sample exceeded the linear calibration curve; blank matrices were used to dilute before protein precipitation. For method validation, all major components in the biological sample of dog were determined and validated according to the previous reports with little modification.
The LC–MS/MS system was set up according to a previous published method. In brief, an LCMS-8060 coupled with a triple quadrupole mass spectrometer was controlled by LabSolution software version 5.86 (Shimadzu Corp.). A Synergi Fusion-RP C18 column (Phenomenex Inc.) maintained at 40 °C was used as the stationary phase. The analysis was run using absolute methanol and 0.2% formic acid in water as the mobile phase.
To evaluate significant differences between the pre- and post-dose of the test substances to the health status of dogs, the biochemical data were compared by using Student’s t-test. PK solution software version 2.0 (Summit Research Services) was used to analyse pharmacokinetic parameters by non-compartmental analysis. Cmax and Tmax were directly determined from plasma concentration–time curves. AUC0-24 was calculated using the trapezoidal rule and extrapolated to time infinity by the equation AUC0-inf = AUC0–24 + (Clast/kel), where Clast is the last observed plasma concentration after dosing and kel is the elimination rate constant. MRT was calculated as AUMC0-inf/AUC0-inf, where AUMC0-inf is the area under the first moment concentration–time curve. Vd was equal to dose/C0, where C0 is the plasma concentration at time zero and CL was calculated as dose/AUC0-inf. […] Absolute bioavailability was calculated as (AUCp.o./DOSEp.o.)/(AUCi.v./DOSEi.v.) × 100. Relative bioavailability was calculated from (AUCCTS/DOSECTS)/(AUCECa/DOSEECa) × 100. Before performing the statistical analysis in SPSS version 22.0 (IBM Corp.), the Shapiro–Wilk test was used to determine whether the data were normally distributed. A paired Student’s t test or Wilcoxon signed-rank test was used to determine significant differences of pharmacokinetic parameters between the groups.

[2] = dog, in vivo, iv
Experimental: as §1
All biological samples (plasma, urine, and faeces) were subjected to protein precipitation to extract the major triterpenoids from the samples. […] For method validation, all major components in the biological sample of dog were determined and validated according to the previous reports with little modification. […]
(§2) To evaluate significant differences between the pre- and post-dose of the test substances to the health status of dogs, the biochemical data were compared by using Student’s t-test. […] Cmax and Tmax were directly determined from plasma concentration–time curves. AUC0-24 was calculated using the trapezoidal rule and extrapolated to time infinity by the equation AUC0-inf = AUC0–24 + (Clast/kel), where Clast is the last observed plasma concentration after dosing and kel is the elimination rate constant. […] Absolute bioavailability was calculated as (AUCp.o./DOSEp.o.)/(AUCi.v./DOSEi.v.) × 100. […]

[3] = dog, in vivo; remark: listed apart in the source
Experimental: as §1
as §2, with “constant. MRT was calculated as AUMC0-inf/AUC0-inf, where AUMC0-inf is the area under the first moment concentration–time curve. Vd was equal to dose/C0, where C0 is the plasma concentration at time zero and CL was calculated as dose/AUC0-inf.” for “constant.”, “100. Relative bioavailability was calculated from (AUCCTS/DOSECTS)/(AUCECa/DOSEECa) × 100.” for “100.”

Row | SMILES | plasma concentration compared with madecassic acid ([1]; po) | AUC0-24 of madecassoside ([1]; iv, 0.46 mg/kg) | AUC0-inf of madecassoside ([1]; iv, 0.46 mg/kg) | Half-life of madecassoside ([1]; iv, 0.46 mg/kg) | MRT of madecassoside ([1]; iv, 0.46 mg/kg) | Vd of madecassoside ([1]; iv, 0.46 mg/kg) | excretion route of parent triterpenoid glycosides [2] | measured biochemical parameters (haematology, kidney, liver functions), pre-dose versus post-dose [3]
1 | C[C@H]1[C@H](C)CC[C@]2(C(=O)O)CC[C@]3(C)C(=CC[C@@H]4[C@@]5(C)C[C@@H](O)[C@H](O)[C@@](C)(CO)[C@@H]5CC[C@]43C)[C@H]12 [asiatic acid] | approximately tenfold higher | – | – | – | – | – | – | –
2 | C[C@H]1[C@H](C)CC[C@]2(C(=O)O[C@@H]3O[C@H](CO[C@@H]4O[C@H](CO)[C@@H](O[C@@H]5O[C@@H](C)[C@H](O)[C@@H](O)[C@H]5O)[C@H](O)[C@H]4O)[C@@H](O)[C@H](O)[C@H]3O)CC[C@]3(C)C(=CC[C@@H]4[C@@]5(C)C[C@@H](O)[C@H](O)[C@@](C)(CO)[C@@H]5[C@H](O)C[C@]43C)[C@H]12 [madecassoside] | – | 15,662 ± 1927 µg.h/L | 15,705 ± 1938 µg.h/L | 3.88 (0.40) h | 8.05 ± 0.99 h | 0.18 ± 0.05 L/kg | excreted via urine within 24 h | no significant differences

— paper PMC8861063, “Increase water solubility of Centellaasiatica extract by indigenous bioenhancers could improve oral bioavailability and disposition kinetics of triterpenoid glycosides in beagle dogs” (Scientific Reports, 2022)
